Paper PMC10600239, “Selective MCL-1 inhibitor ABBV-467 is efficacious in tumor models but is associated with cardiac troponin increases in patients” (Communications Medicine, 2023)
“And” between values parts separate entries of the source, which are not always exact repeats. Equal entries are not always repeated. Where two headings read alike, the source gives them in different places.

Assay: Phase 1 first-in-human study (NCT04178902): pharmacokinetics
Assay type: in vivo
Description: Other eligibility criteria included: Eastern Cooperative Oncology Group performance status ≤2, measurable disease as defined by International Myeloma Working Group (IMWG) consensus criteria, an echocardiogram with an ejection fraction ≥50%, and adequate hematologic, hepatic, and renal function. […] Safety evaluations included, but were not limited to, adverse event (AE) monitoring, physical examinations, vital sign measurements, electrocardiogram (ECG), cardiac enzyme monitoring, and clinical laboratory testing (hematology and chemistry) as a measure of safety and tolerability for the entire study duration. Parameters used to determine PK included maximum observed plasma concentration (Cmax), terminal elimination half-life (t1/2), area under the plasma concentration-time curve (AUC) from time 0 to time of last measurable concentration (AUCt), AUC from time 0 to infinity (AUC0-∞), and clearance using non-compartmental methods. […] Preliminary efficacy endpoints were overall response rate (ORR), clinical benefit rate (CBR), and duration of response (DOR) as evaluated per adapted IMWG[36] criteria for MM and per adapted International Working Group (IWG)[37] and European Leukemia Net (ELN)[38] criteria for AML. […]

[1] = Cycle 1 day 1, dose level 0.32 mg/kg (only half of this dose given), N=2, individual values
[2] = Cycle 1 day 15, 0.32 mg/kg, N=2, individual values
[3] = Cycle 1 day 15, 0.53 mg/kg, N=2, individual values
[4] = human, plasma, intravenous, 0.32 mg/kg, Cycle 1 day 1, dose level 0.32 mg/kg (only half of this dose given), N=2, individual values
[5] = human, plasma, intravenous, 0.53 mg/kg, Cycle 1 day 1, dose level 0.53 mg/kg (only half of this dose given), N=3
[6] = human, plasma, intravenous, 0.53 mg/kg, Cycle 1 day 15, 0.53 mg/kg, N=2, individual values

## Cc1c(Cl)c2c(Cl)c(C)c1-c1c(-c3ccc(F)cc3)sc3ncnc(c13)O[C@@H](C(=O)O)Cc1cc(ccc1OCc1ccnc(-c3ccc(OC[C@H]4COCCO4)cc3)n1)OC[C@@H](CN1CCN(C)CC1)O2 [ABBV-467]
Cycle 1 Day 1, DOSE_MGKG 0.08, cohort 1, PKTIME 0.333333
  CONC_NGML: 157 ng/mL and 146 ng/mL
Cycle 1 Day 1, DOSE_MGKG 0.08, cohort 1, PKTIME 0.5
  CONC_NGML: 198 ng/mL and 162 ng/mL
Cycle 1 Day 1, DOSE_MGKG 0.16, cohort 2, PKTIME 0.5
  CONC_NGML: 344 ng/mL
Cycle 1 Day 1, DOSE_MGKG 0.16, cohort 2, PKTIME 1
  CONC_NGML: 21.9 ng/mL
Cycle 1 Day 1, DOSE_MGKG 0.16, cohort 2, PKTIME 1.5
  CONC_NGML: 17 ng/mL
Cycle 1 Day 1, DOSE_MGKG 0.16, cohort 2, PKTIME 2.5
  CONC_NGML: 6.62 ng/mL
Cycle 1 Day 1, DOSE_MGKG 0.265, cohort 3, PKTIME 0.333333
  CONC_NGML: 655 ng/mL and 470 ng/mL
Cycle 1 Day 1, DOSE_MGKG 0.265, cohort 3, PKTIME 0.5
  CONC_NGML: 708 ng/mL and 613 ng/mL
Cycle 1 Day 1, DOSE_MGKG 0.265, cohort 3, PKTIME 1.5
  CONC_NGML: 26.5 ng/mL and 26.6 ng/mL
Cycle 1 Day 1, DOSE_MGKG 0.265, cohort 3, PKTIME 2.5
  CONC_NGML: 6.81 ng/mL and 11.1 ng/mL
Cycle 1 Day 15, DOSE_MGKG 0.16, cohort 1, PKTIME 0.333333
  CONC_NGML: 297 ng/mL and 479 ng/mL
Cycle 1 Day 15, DOSE_MGKG 0.16, cohort 1, PKTIME 1
  CONC_NGML: 46.8 ng/mL and 44.6 ng/mL
Cycle 1 Day 15, DOSE_MGKG 0.16, cohort 1, PKTIME 1.5
  CONC_NGML: 14.6 ng/mL and 10.1 ng/mL
Cycle 1 Day 15, DOSE_MGKG 0.32, cohort 2, PKTIME 0.333333
  CONC_NGML: 529 ng/mL
Cycle 1 Day 15, DOSE_MGKG 0.53, cohort 3, PKTIME 0.166667
  CONC_NGML: 940 ng/mL
Cycle 1 Day 15, DOSE_MGKG 0.53, cohort 3, PKTIME 0.333333
  CONC_NGML: 1430 ng/mL
Cycle 1 Day 15, DOSE_MGKG 0.53, cohort 3, PKTIME 0.5
  CONC_NGML: 1510 ng/mL
Cycle 1 Day 15, DOSE_MGKG 0.53, cohort 3, PKTIME 1.5
  CONC_NGML: 60.6 ng/mL
Cycle 1 Day 15, DOSE_MGKG 0.53, cohort 3, PKTIME 2.5
  CONC_NGML: 26.3 ng/mL
Cycle 1 Day 15, DOSE_MGKG 0.53, cohort 3, PKTIME 4.5
  CONC_NGML: 8.14 ng/mL
[1]
  AUCinf: 309 ng·h/mL
  AUCt: 306 ng·h/mL
  CL: 8.62 mL/min/kg
  Cmax: 344 ng/mL
  t1/2: 34.4 min
[2]
  AUCinf: 940 ng·h/mL and 350 ng·h/mL
  AUCt: 346 ng·h/mL and 933 ng·h/mL
  CL: 5.67 mL/min/kg and 15.2 mL/min/kg
  Cmax: 1720 ng/mL and 646 ng/mL
  Tmax: 45.0 min
  t1/2: 23.0 min and 54.3 min
[3]
  AUCinf: 1290 ng·h/mL
  AUCt: 1280 ng·h/mL
  CL: 6.83 mL/min/kg
  Cmax: 1860 ng/mL
  t1/2: 64.1 min
Human patients at the doses studied
  pharmacokinetics: linear pharmacokinetics
human, in vivo, 0.08 mg/kg, Cycle 1 Day 1, DOSE_MGKG 0.08, cohort 1, PKTIME 0, read-out: CONC_NGML
  concentration at 0 h: 0 ng/mL
human, in vivo, 0.08 mg/kg, Cycle 1 Day 1, DOSE_MGKG 0.08, cohort 1, PKTIME 0.333333, read-out: CONC_NGML
  concentration at 20 min: 132 ng/mL
human, in vivo, 0.08 mg/kg, Cycle 1 Day 1, DOSE_MGKG 0.08, cohort 1, PKTIME 0.5, read-out: CONC_NGML
  concentration at 0.5 h: 252 ng/mL
human, in vivo, 0.08 mg/kg, Cycle 1 Day 1, DOSE_MGKG 0.08, cohort 1, PKTIME 4.5, read-out: CONC_NGML
  concentration at 4.5 h: 0 ng/mL
human, in vivo, 0.08 mg/kg, Cycle 1 Day 1, DOSE_MGKG 0.08, cohort 1, PKTIME 8.5, read-out: CONC_NGML
  concentration at […]: 0 ng/mL
human, in vivo, 0.08 mg/kg, Cycle 1 Day 1, DOSE_MGKG 0.08, cohort 1, PKTIME 24.5, read-out: CONC_NGML
  concentration at […]: 0 ng/mL
human, in vivo, 0.265 mg/kg, Cycle 1 Day 1, DOSE_MGKG 0.265, cohort 3, PKTIME 0, read-out: CONC_NGML
  concentration at 0 h: 0 ng/mL
human, in vivo, 0.265 mg/kg, Cycle 1 Day 1, DOSE_MGKG 0.265, cohort 3, PKTIME 0.333333, read-out: CONC_NGML
  concentration at 20 min: 904 ng/mL
human, in vivo, 0.265 mg/kg, Cycle 1 Day 1, DOSE_MGKG 0.265, cohort 3, PKTIME 0.5, read-out: CONC_NGML
  concentration at 0.5 h: 564 ng/mL
human, in vivo, 0.265 mg/kg, Cycle 1 Day 1, DOSE_MGKG 0.265, cohort 3, PKTIME 1.5, read-out: CONC_NGML
  concentration at 1.5 h: 14.9 ng/mL
human, in vivo, 0.265 mg/kg, Cycle 1 Day 1, DOSE_MGKG 0.265, cohort 3, PKTIME 2.5, read-out: CONC_NGML
  concentration at […]: 8.88 ng/mL
human, in vivo, 0.265 mg/kg, Cycle 1 Day 1, DOSE_MGKG 0.265, cohort 3, PKTIME 8.5, read-out: CONC_NGML
  concentration at […]: 0 ng/mL
human, in vivo, 0.265 mg/kg, Cycle 1 Day 1, DOSE_MGKG 0.265, cohort 3, PKTIME 24.5, read-out: CONC_NGML
  concentration at […]: 0 ng/mL
human, in vivo, 0.32 mg/kg, Cycle 1 Day 15, DOSE_MGKG 0.32, cohort 2, PKTIME 0, read-out: CONC_NGML
  concentration at 0 h: 0 ng/mL
human, in vivo, 0.32 mg/kg, Cycle 1 Day 15, DOSE_MGKG 0.32, cohort 2, PKTIME 0.333333, read-out: CONC_NGML
  concentration at 20 min: 646 ng/mL
human, in vivo, 0.32 mg/kg, Cycle 1 Day 15, DOSE_MGKG 0.32, cohort 2, PKTIME 8.5, read-out: CONC_NGML
  concentration at […]: 0 ng/mL
human, in vivo, 0.32 mg/kg, Cycle 1 Day 15, DOSE_MGKG 0.32, cohort 2, PKTIME 24.5, read-out: CONC_NGML
  concentration at […]: 0 ng/mL
human, in vivo, 0.53 mg/kg, Cycle 1 Day 15, DOSE_MGKG 0.53, cohort 3, PKTIME 0.166667, read-out: CONC_NGML
  concentration at 10 min: 731 ng/mL
human, in vivo, 0.53 mg/kg, Cycle 1 Day 15, DOSE_MGKG 0.53, cohort 3, PKTIME 0.333333, read-out: CONC_NGML
  concentration at 20 min: 1370 ng/mL
human, in vivo, 0.53 mg/kg, Cycle 1 Day 15, DOSE_MGKG 0.53, cohort 3, PKTIME 0.5, read-out: CONC_NGML
  concentration at 0.5 h: 1860 ng/mL
human, in vivo, 0.53 mg/kg, Cycle 1 Day 15, DOSE_MGKG 0.53, cohort 3, PKTIME 1.5, read-out: CONC_NGML
  concentration at 1.5 h: 87.9 ng/mL
human, in vivo, 0.53 mg/kg, Cycle 1 Day 15, DOSE_MGKG 0.53, cohort 3, PKTIME 2.5, read-out: CONC_NGML
  concentration at […]: 27.3 ng/mL
human, in vivo, 0.53 mg/kg, Cycle 1 Day 15, DOSE_MGKG 0.53, cohort 3, PKTIME 4.5, read-out: CONC_NGML
  concentration at 4.5 h: 11.3 ng/mL
human, in vivo, 0.53 mg/kg, Cycle 1 Day 15, DOSE_MGKG 0.53, cohort 3, PKTIME 8.5, read-out: CONC_NGML
  concentration at […]: 0 ng/mL
human, in vivo, 0.53 mg/kg, Cycle 1 Day 15, DOSE_MGKG 0.53, cohort 3, PKTIME 24.5, read-out: CONC_NGML
  concentration at […]: 0 ng/mL
[4]
  AUC(0-inf): 167 ng·h/mL
  AUC(0-t): 159 ng·h/mL
  clearance: 15.9 mL/min/kg
human, plasma, intravenous, 0.32 mg/kg, Cycle 1 day 1, dose level 0.32 mg/kg (only half of this dose given), N=2, individual values, read-out: Cmax
  Cmax: 474 ng/mL
human, plasma, intravenous, 0.32 mg/kg, Cycle 1 day 1, dose level 0.32 mg/kg (only half of this dose given), N=2, individual values, read-out: Tmax (converted)
  Tmax: 20 min
human, plasma, intravenous, 0.32 mg/kg, Cycle 1 day 1, dose level 0.32 mg/kg (only half of this dose given), N=2, individual values, read-out: t1/2
  half-life: 50.8 min
[5]
  AUC(0-inf): 435 ng·h/mL
  AUC(0-t): 428 ng·h/mL
  clearance: 10.2 mL/min/kg
human, plasma, intravenous, 0.53 mg/kg, Cycle 1 day 1, dose level 0.53 mg/kg (only half of this dose given), N=3, harmonic mean (pseudo SD), read-out: t1/2
  half-life: 55.5 min
human, plasma, intravenous, 0.53 mg/kg, Cycle 1 day 1, dose level 0.53 mg/kg (only half of this dose given), N=3, median, read-out: Tmax (converted)
  Tmax: 30 min
[6]
  AUC(0-inf): 933 ng·h/mL
  AUC(0-t): 921 ng·h/mL
  clearance: 9.47 mL/min/kg
human, plasma, intravenous, 0.53 mg/kg, Cycle 1 day 15, 0.53 mg/kg, N=2, individual values, read-out: Cmax
  Cmax: 1510 ng/mL
human, plasma, intravenous, 0.53 mg/kg, Cycle 1 day 15, 0.53 mg/kg, N=2, individual values, read-out: Tmax (converted)
  Tmax: 30 min
human, plasma, intravenous, 0.53 mg/kg, Cycle 1 day 15, 0.53 mg/kg, N=2, individual values, read-out: t1/2
  half-life: 63.3 min
human, plasma, intravenous, […], Cycle 1 day 1, dose level […] (only half of this dose given), N=3, harmonic mean (pseudo SD), read-out: t1/2
  half-life: 16.1 min
human, plasma, intravenous, […], Cycle 1 day 1, dose level […] (only half of this dose given), N=3, median, read-out: Tmax (converted)
  Tmax: 30 min
human, plasma, intravenous, […], Cycle 1 day 15, […], N=3
  clearance: 10.4 mL/min/kg
human, plasma, intravenous, […], Cycle 1 day 15, […], N=3, median, read-out: Tmax (converted)
  Tmax: 30 min
human, plasma, iv, patients, 30-minute IV infusion, 0.08–0.53 mg/kg, read-out: average half-life
  half-life: < 60 min
patients, 30-minute IV infusion
  time after completion of infusion at which circulating plasma concentrations were eliminated: 4 h
